Data on 28 molecules can be found in PubChem BioAssay (NCI).

Values joined by “and” are separate entries in the source; they are usually repeats but may differ in a detail not shown here. Identical values can stand only once.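 Assay format: 96-well plates, 48-hour exposure. The concentration for 50% growth inhibition is given as GI50. At the TGI there is no net growth.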

The subject of one assay is NCI-H460 lung. As to the kind of experiment: inhibition of tumour cell growth, NCI panel, 48 h.
In turn, `C/C(=N/N(C=O)C[n+]1ccccc1)C(CN(CC(C)C)CC(C)C)C(=O)Nc1ccc(C)cc1C` (stereo unspecified) showed a TGI greater than 100 µM.
On to `COc1cc(C2c3cc4c(cc3[C@@H](Nc3ccc(N(C)C)cc3)[C@H]3COC(=O)C23)OCO4)cc(OC)c1O` (stereo partly specified), for which the GI50 was less than 0.0075 µM; the TGI was 1.88 µM and 10.4 µM.
For the molecule `O=c1nc(-c2ccccc2)c2c3c(cccn13)CCC2`, the TGI was greater than 100 µM.
As to `COc1ccc([C@H]2CC(=O)N3CCCC3N2)cc1` (stereo partly specified), the TGI was greater than 100 µM.
Regarding `O=C(c1ccccc1)c1c(CC(O)c2cccnc2)n(C(=O)c2ccccc2)c2ccccc12` (stereo unspecified), the TGI stood at 36.4 µM.
The same measure, in the same setting: to `C=C(C)C1CC2C(C)=C(OC(C)=O)C1n1c(=O)c3cc4ccccc4cc3c(=O)n12` (stereo unspecified) belongs greater than 100 µM.
With `COc1cc(Nc2ccnc(N3CCN(c4ccnc5cc(Cl)ccc45)CC3)n2)cc(OC)c1`, the GI50 is 1.51 µM and the TGI was greater than 100 µM.
Consider `O=C(CCc1nc(=S)[nH][nH]1)NC12CC3CC(CC(C3)C1)C2`, for which the TGI was greater than 100 µM.
Still for that read-out and setting: then `COc1ccc(C(C2=C(C)C(=O)c3ccccc3C2=O)c2ccc(C(C)C)cc(=O)c2O)cc1` (stereo unspecified), with 12.6 µM.

A further assay has as its system SF-268 CNS. In words: inhibition of tumour cell growth, NCI panel, 48 h.
`O=C1c2ccccc2N2OC3(N4CCCC4)CCCC3C12c1ccccc1` (stereo unspecified): the TGI was greater than 100 µM.
On the same count and under the same terms, then `COc1ccc(C2C(Cl)C(=O)N2n2cnc3ccccc3c2=O)cc1OC` (stereo unspecified), with greater than 100 µM; and `Nc1nc2c(ncn2Cc2ccccc2CCO)c(=O)[nH]1`, with greater than 100 µM.
Same read-out and setting: then `CC[N+]1(C)CCC(O)(c2ccc(C)cc2)C(C(=O)c2ccc(C)cc2)C1` (stereo unspecified), with greater than 100 µM; and `CCC1(Br)C(=O)NC(=O)N(C2CC(O)C(CO)O2)C1N=[N+]=[N-]` (stereo unspecified), with greater than 100 µM; and `O=[N+]([O-])c1ccc(N=Nc2c(O)[nH]c3ccc([N+](=O)[O-])cc23)cc1`, with 38 µM.
On the same count and under the same terms, then `CC12CC3(C)CC(C)(C1)CC(N=[N+]=[N-])(C2)C3`, with greater than 100 µM; and `N=C(N)SCc1cn2ccccc2n1`, with greater than 100 µM.
As for `Clc1ccc([O][In]([O]c2ccc(Cl)cn2)[O]c2ccc(Cl)cn2)nc1`, the GI50 is greater than 100 µM and the TGI was greater than 100 µM.
For `Fc1cccc(Cl)c1C1SCc2nc3ccccc3n21` (stereo unspecified), the TGI is greater than 100 µM.
Still for that read-out and setting: to `COc1cc2nncc(Sc3cnnc4ccccc34)c2cc1OC` belongs greater than 100 µM; to `COC(=O)C1=CCON(c2ccccc2)C1c1ccccc1` (stereo unspecified), greater than 100 µM.
For the molecule `Nc1cc(N)c2nc(-c3ccccc3)c(Oc3ccc(F)cc3)nc2c1`, the GI50 is 13.8 µM and the TGI came to 47.6 µM.
As to `CC(=O)N(CCN)CCN`, the TGI is greater than 100 µM.
Still for that read-out and setting: then `Cc1cc(O)c2c(c1)C(O)(c1ccc3c(c1O)C(=O)c1c(O)cc(C)cc1C3(O)C1OC(CO)C(O)C(O)C1O)c1cccc(O)c1C2=O` (stereo unspecified), with 36 µM.
On the same count and under the same terms, then `COC(=O)c1nc(NN)[nH]c(=O)c1CCCCCc1c(C(=O)OC)[nH]c(NN)cc1=O`, with greater than 100 µM; and `CC1(C)C(=O)C(O)=CC2C1=CCC1C2(C)C(=O)CC2(C)C(C(C)(O)C(=O)CC(O)C(C)(C)O)C(O)CC12C` (stereo unspecified), with 9.76 µM.
Same read-out and setting: then `CCc1ccccc1NC(=O)C(=O)C(C(=O)c1ccc(OC)cc1)c1ccc(OC)cc1` (stereo unspecified), with greater than 100 µM; and `C/C(=N/N(C=O)C[n+]1ccccc1)C(CN(CC(C)C)CC(C)C)C(=O)Nc1ccc(C)cc1C` (stereo unspecified), with greater than 100 µM.
For the molecule `COc1cc(C2c3cc4c(cc3[C@@H](Nc3ccc(N(C)C)cc3)[C@H]3COC(=O)C23)OCO4)cc(OC)c1O` (stereo partly specified), the GI50 is 3.13 µM; the TGI was 4.32 µM and 16.6 µM.
`O=c1nc(-c2ccccc2)c2c3c(cccn13)CCC2` registered a TGI greater than 100 µM.
For the molecule `COc1ccc([C@H]2CC(=O)N3CCCC3N2)cc1` (stereo partly specified), the TGI was greater than 100 µM.
In turn, `O=C(c1ccccc1)c1c(CC(O)c2cccnc2)n(C(=O)c2ccccc2)c2ccccc12` (stereo unspecified) came in with a TGI of 59.4 µM.
`C=C(C)C1CC2C(C)=C(OC(C)=O)C1n1c(=O)c3cc4ccccc4cc3c(=O)n12` (stereo unspecified) returned a TGI greater than 100 µM.
Regarding `COc1cc(Nc2ccnc(N3CCN(c4ccnc5cc(Cl)ccc45)CC3)n2)cc(OC)c1`, the GI50 is 3.05 µM and the TGI is greater than 100 µM.
On to `COc1ccc(C(C2=C(C)C(=O)c3ccccc3C2=O)c2ccc(C(C)C)cc(=O)c2O)cc1` (stereo unspecified), for which the TGI came to 23 µM.
On the same count and under the same terms, then `CC(C)N(C(=O)C12C3C4C1C1C2C3C41C(O)C(C)(C)C)C(C)C` (stereo unspecified), with greater than 50 µM.

The test system of the next assay is SF-295 CNS. In words: inhibition of tumour cell growth, NCI panel, 48 h.
`O=C1c2ccccc2N2OC3(N4CCCC4)CCCC3C12c1ccccc1` (stereo unspecified): the TGI is greater than 100 µM.
The same measure, in the same setting: then `COc1ccc(C2C(Cl)C(=O)N2n2cnc3ccccc3c2=O)cc1OC` (stereo unspecified), with greater than 100 µM; and `Nc1nc2c(ncn2Cc2ccccc2CCO)c(=O)[nH]1`, with greater than 100 µM.
As to `CC[N+]1(C)CCC(O)(c2ccc(C)cc2)C(C(=O)c2ccc(C)cc2)C1` (stereo unspecified), the TGI was greater than 100 µM.
On the same count and under the same terms, then `CCC1(Br)C(=O)NC(=O)N(C2CC(O)C(CO)O2)C1N=[N+]=[N-]` (stereo unspecified), with greater than 100 µM; and `O=[N+]([O-])c1ccc(N=Nc2c(O)[nH]c3ccc([N+](=O)[O-])cc23)cc1`, with 27.5 µM; and `CC12CC3(C)CC(C)(C1)CC(N=[N+]=[N-])(C2)C3`, with greater than 100 µM.
`N=C(N)SCc1cn2ccccc2n1`: the TGI was greater than 100 µM.
Regarding `Clc1ccc([O][In]([O]c2ccc(Cl)cn2)[O]c2ccc(Cl)cn2)nc1`, the GI50 is 25.2 µM and the TGI amounted to 47.5 µM.
`Fc1cccc(Cl)c1C1SCc2nc3ccccc3n21` (stereo unspecified) had a TGI of 95.2 µM.
Take `COc1cc2nncc(Sc3cnnc4ccccc34)c2cc1OC`: the TGI came out at 91.6 µM.
On to `Nc1cc(N)c2nc(-c3ccccc3)c(Oc3ccc(F)cc3)nc2c1`, for which the GI50 is 20.3 µM and the TGI was found to be 38.5 µM.
Take `CC(=O)N(CCN)CCN`: the TGI was greater than 10 µM.
Same read-out and setting: then `Cc1cc(O)c2c(c1)C(O)(c1ccc3c(c1O)C(=O)c1c(O)cc(C)cc1C3(O)C1OC(CO)C(O)C(O)C1O)c1cccc(O)c1C2=O` (stereo unspecified), with 24.9 µM; and `COC(=O)c1nc(NN)[nH]c(=O)c1CCCCCc1c(C(=O)OC)[nH]c(NN)cc1=O`, with greater than 100 µM; and `CC1(C)C(=O)C(O)=CC2C1=CCC1C2(C)C(=O)CC2(C)C(C(C)(O)C(=O)CC(O)C(C)(C)O)C(O)CC12C` (stereo unspecified), with 13.1 µM.
`CCc1ccccc1NC(=O)C(=O)C(C(=O)c1ccc(OC)cc1)c1ccc(OC)cc1` (stereo unspecified): the TGI is greater than 100 µM.
Molecule `C/C(=N/N(C=O)C[n+]1ccccc1)C(CN(CC(C)C)CC(C)C)C(=O)Nc1ccc(C)cc1C` (stereo unspecified) yielded a TGI greater than 100 µM.
In the case of `COc1cc(C2c3cc4c(cc3[C@@H](Nc3ccc(N(C)C)cc3)[C@H]3COC(=O)C23)OCO4)cc(OC)c1O` (stereo partly specified), the GI50 was 0.223 µM; the TGI is 0.483 µM and 1.47 µM.
For `O=c1nc(-c2ccccc2)c2c3c(cccn13)CCC2`, the TGI is greater than 100 µM.
Still for that read-out and setting: then `COc1ccc([C@H]2CC(=O)N3CCCC3N2)cc1` (stereo partly specified), with greater than 100 µM.
